SMILES strings stand for the structures.

One data set concerns Shay's ulcer. The data set can be described thus: Shay's ulcer. The format is in vivo. As to conditions: Rattus norvegicus, intraduodenal; rats, 100 mg/kg intraduodenally, pylorus ligature, 18 hours, ulcer area of forestomach; read-out: Rate of inhibition, Shay's ulcer (%). As for the experimental part:
Two groups of rats of body weight of from 2x10^-1 to 2.5x10^-1 kg (200 to 250 g), each group consisting of 10 animals, were treated under ether-anaesthesia by ligature of the pylorus after 48 hour-fasting (during which water was taken ad lib.) and, just after the operation, an aqueous suspension of one of the compounds of the invention in a 1% solution of carboxymethylcellulose (hereinafter referred to as CMC) was administered intraduodenally to the rats in one group at a dose of 10^-4 kg/kg (100 mg/kg). The other group (control) was given an aqueous 1% solution of CMC intraduodenally. After keeping these animals for 18 hours without giving them any food and water, their stomachs were extirpated under ether anaesthesia and the area (m^2x10^-6) (mm ) of the ulcer generated on the forestomach part of the rats was determined under an anatomical microscope. The total area of the ulcers of one group was represented by an ulcer coefficient. The rate of inhibition of the occurrence of ulcers (%) was obtained by calculation according to the following formula: Rate of inhibition of the occurrence of ulcers (%)= 100 x (Ulcer coeff. of control qp) - (Ulcer coeff. of test qp) (ulcer coeff.of control gp)
(§1) Note: ^* The structure of the compounds of the invention is expressed by the formula: [drawing 8] **The structure of the reference compound is expressed by the formula: [drawing 9] **Experiments were carried out on rats and the rate of inhibition was obtained at a dose of 10^-4 kg/kg (100 mg/kg) orally or intraduodenally.

The subject of the next data set is Stress ulcer. The data set can be described thus: Stress ulcer (restriction in water). To be noted: Rattus norvegicus, po; rats, 100 mg/kg orally, immersed in water at 23°C for 20 hours, length of erosion; read-out: Rate of inhibition, Stress ulcer (%). The format is in vivo. As for the experimental part:
One group of 10 rats of body weight of from 2x10^-1 to 2.5x10^-1kg (200 to 250 g) after oral administration of an aqueous suspension of the compound of the invention being tested in a 1% CMC solution at a dose of 10^-4 kg/kg (100 mg/kg) were kept in stress cages and immersed in water at a temperature of 23°C to the depth of their thorax for 20 hours to give a stress of restriction in water. Another group of 10 rats of the same strain (a control group) were also treated with the same stress, but after administration of an aqueous 1% CMC solution.
Just after removing the rats from the water, they were clubbed to death and their stomachs were extirpated. Then, about 1.5x10^-5m^3 (15 ml) of an aqueous 1% formaldehyde solution was injected into each stomach. After maintaining the formaldehyde solution in the stomachs for 10 minutes to enable the solution to contact to the inner stomach wall, each stomach was cut open along the greater curvature to examine the length of erosion (in 10" m (mm)) generated on the mucosa of the glandular stomach region under an anatomical microscope. The sum of the length of erosion for rats of one group was represented by the ulcer coefficient. The rate of inhibition of the occurrence of the ulcer by each compound was obtained by the same method as in 1-1), the results being shown also in Table 1.
as §1

In another data set the test system is gastric secretion. The data set can be described thus: Effects on gastric secretion (pylorus-ligated rats). As to conditions: Rattus norvegicus, intraduodenal, 100 mg/kg intraduodenally, pylorus ligature, gastric juice collected after 7 hours, read-out: Rate of inhibition, Gastric secretion (%). The format is in vivo. As for the experimental part:
One group of 10 rats of body weight of from 1.5x10^-1 to 1.8x10^-1 kg (150 to 180g) was subjected to ligature of the pylorus after 24-hours fasting, under ether-anaesthesia, and one of the compounds of the present invention or the reference compound was administered as a dispersion in an aqueous 1% CMC solution into the duodenum. Only an aqueous 1% CMC solution was administered into the duodenum of a control group of 10 rats. After 7 hours from closing the abdomen, the stomach was extirpated under ether-anaesthesia to collect the gastric juice that had accumulated in it. The inhibiting effect of each drug on gastric secretion was calculated by the following formula: [formula] wherein Amount of gastric juice of control group = A ml Amount of gastric juice of test group = B ml The results are also shown in Table 1.
as §1

Data set [1] in a line: Acute oral toxicity (LD50 p.o.). To be noted: rat, in vivo, rats, read-out: Acute oral toxicity (LD50,kgx10^-6/kg).
Another data set deals with Aspirin-induced ulcer. Description: Aspirin-induced ulcer. To be noted: Rattus norvegicus; rats, 100 mg/kg intraduodenally, aspirin 100 mg/kg orally, 7 hours, length of erosion; read-out: Rate of inhibition, Aspirin-ulcer (%). The data set is classed as in vivo. As for the experimental part:
One group of 10 rats of body weight of from 2x10^-1 to 2.5x10^-1 kg (200 to 250 g) was subjected to laparotomy under ether-anaesthesia, after 24 hour-fasting with ad lib. taking water, to have ligature of their pylorus (according to Okabe et al., 1974). Just after the ligature, an aqueous suspension of one of the compounds of the invention in a 1% CMC solution was intraduodenally administered to the rats at a dose of 10^-4 kg/kg (100 mg/kg). After closing the abdomen, an aqueous dispersion of aspirin in a 1% CMC solution was orally administered at a dose of 10^-4 kg/kg (100 mg/kg). After 7 hours of the aspirin administration, the stomach was extirpated under ether-anaesthesia, and the length (in 10^-3m (mm)) of erosions generated on the mucosa of the glandular stomach region was measured. The sum of the length of erosion on rats of one group was represented by the ulcer coefficient. The same procedures were carried out on another group of 10 rats of the same strain (a control group) except that an aqueous 1% CMC solution was administered instead of the aqueous dispersion of one of the compounds of the present invention. The rate of inhibition of the occurrence of ulcers was obtained by calculation as in 1-2), the results being also shown in Table 1.
as §1

With `CCN=C(NC#N)NCCCCn1nc(-c2ccccc2)ccc1=O` [Compound No. 50, N-cyano-N'-[4-(3-oxo-6-phenyl-2-pyridazinyl)butyl]-N"-ethylguanidine], the inhibition in vivo at 100 mg/kg with Shay's ulcer was 73.4%; in the data set with Stress ulcer, 77.2%; in the data set with gastric secretion, 59.2%; in the data set on Aspirin-induced ulcer it was 86.2%. Further, the LD50 in data set [1] was over 5000 mg/kg.

Regarding `CN=C(NC#N)NCCSCn1nc(-c2ccccc2)ccc1=O` [Compound No. 138, N-cyano-N'-[2-{(3-oxo-6-phenyl-2-pyridazinyl)methylthio}ethyl]-N"-methylguanidine], the inhibition in vivo at 100 mg/kg was 88.3% with Shay's ulcer, 68.2% in the data set with Stress ulcer, 70.2% in the data set on gastric secretion and 90.2% in the data set with Aspirin-induced ulcer. The LD50 in data set [1] stood at 4800 mg/kg.

Regarding `CN=C(NC#N)NCCCCn1nc(-c2ccccc2)cc(C)c1=O` [Compound No. 81, N-cyano-N'-[4-(4-methyl-3-oxo-6-phenyl-2-pyridazinyl)butyl]-N"- methylguanidine], the inhibition in vivo at 100 mg/kg turned out to be 72.4% in the data set with Shay's ulcer, 63.4% with Stress ulcer, 54.2% in the data set on gastric secretion and 90.8% with Aspirin-induced ulcer. For the same compound, in data set [1], the LD50 is over 5000 mg/kg.

For `CN=C(NC#N)NCCCCn1nc(-c2ccc(C)cc2)ccc1=O` [Compound No. 65, N-cyano-N'-[4-{6-(4-methylphenyl)-3-oxo-2-pyridazinyl}butyl]-N"- methylguanidine], the inhibition in vivo at 100 mg/kg in the data set on Shay's ulcer came out at 70.3%; with Stress ulcer, 70.5%; in the data set on gastric secretion, 58.5%; with Aspirin-induced ulcer, 91.4%. Also, the LD50 in data set [1] is over 5000 mg/kg.

In the case of `CCN=C(NC#N)NCCCCCn1nc(-c2ccccc2)ccc1=O` [Compound No. 53, N-cyano-N'-[5-(3-oxo-6-phenyl-2-pyridazinyl)pentyl]-N"-ethylguanidine], the inhibition in vivo at 100 mg/kg in the data set on Shay's ulcer worked out at 93.2%; in the data set on Stress ulcer, 79%; in the data set with gastric secretion, 68.5%; with Aspirin-induced ulcer, 90.6%. Moreover, the LD50 in data set [1] was over 5000 mg/kg.

For `CN=C(NC#N)NCCCCn1nc(-c2ccccc2)ccc1=O` [Compound No. 44, N-cyano-N'-[4-(3-oxo-6-phenyl-2-pyridazinyl)butyl]-N"-methylguanidine], the inhibition in vivo at 100 mg/kg is 97.8% in the data set on Shay's ulcer, 71.2% in the data set with Stress ulcer, 77.6% in the data set on gastric secretion and 97.5% with Aspirin-induced ulcer. Moreover, the LD50 in data set [1] was over 5000 mg/kg.

Regarding `CN=C(NC#N)NCCCCn1nc(-c2ccc(Cl)cc2)ccc1=O` [Compound No. 59, N-cyano-N'-[4-{6-(4-chlorophenyl)-3-oxo-2-pyridazinyl}butyl]-N"- methylguanidine], the inhibition in vivo at 100 mg/kg with Shay's ulcer was 61.5%; in the data set on Stress ulcer it was 72.1%; with gastric secretion it was 63.1%; with Aspirin-induced ulcer, 89.5%. Also, in data set [1], the LD50 is 4800 mg/kg.

On to `CCN=C(NC#N)NCCCn1nc(-c2ccccc2)ccc1=O` [Compound No. 48, N-cyano-N'-[3-(3-oxo-6-phenyl-2-pyridazinyl)propyl]-N"-ethylguanidine], for which the inhibition in vivo at 100 mg/kg in the data set with Shay's ulcer was 76.4%; in the data set with Stress ulcer, 70.5%; in the data set with gastric secretion it was 51.9%; with Aspirin-induced ulcer, 93.8%. In addition, the LD50 in data set [1] is over 5000 mg/kg.

The record behind these values is EP0030835A1, “Derivatives of 2-substituted-6-phenyl-3(2H)pyridazinone, their production and pharmaceutical compositions containing them” (MORISHITA PHARMACEUTICAL CO. LTD., priority 1979, dated 1981).
